From a melting point compilation (Tetko et al.; mined from patent text by program, amines drawn as free bases though some values may be those of a salt)

Row | SMILES | melting point [°C]
1 | C=C1CCCC2CCC3C(CCC4(C)C3C(C#N)C35OCCOC43OCCO5)C12C (configuration not stated) | 229
2 | CSc1cc(=O)c2ccc(F)cc2s1 | 120 to 121
3 | CC#CC(C)(C)NC(=O)C(CC)Oc1cncc(Cl)c1 (configuration not stated) | 87 to 89
4 | Cn1c(S(=O)(=O)CCO)nnc1S(=O)(=O)CCO | 176 to 177
5 | NNC(=O)c1cnc2n(c1=O)CCC2 | 180 to 181
6 | CC(C)C[C@H](C(=O)O)N1CC[C@]2(CCCN2C(=O)C(C)C)C1=O | 68 to 69
7 | CC(C)(C)Nc1c(NCc2cc3cc([N+](=O)[O-])ccc3o2)c(=O)c1=O | > 300
8 | Ic1c[nH]c2nccc(OC3CCCCC3)c12 | 199 to 201
9 | COc1ccc(C#Cc2cc(OC)c(OC)cc2C=O)cc1OC | 148 to 149
10 | O=c1[nH]c(=S)[nH]cc1Cc1cnc2ccccc2c1 | 290 to 292
11 | O=c1nc(-c2cccc(CS(=O)Cc3ccccc3)n2)sc2ccccc12 (configuration not stated) | 187 to 189
12 | CC1(C)CCc2c(N3CCOCC3)nc3sc4c(NCc5cccnc5)ncnc4c3c2C1 | 249
13 | CCCCCCCCCCCCCCCCSCC(CO)NC(=O)OC(C)(C)C (configuration not stated) | 48 to 50
14 | CC(=O)OC1CCC2(C)C(=CCC3C2CCC2(C)C3CC(OC(C)=O)C2OC(C)=O)C1 (configuration not stated) | 127 to 129
15 | CN(C)C=CC(=O)c1c(-c2ccc(F)cc2)nc2occn12 | 187 to 189
16 | CCCC1=C(C)C(=O)c2oc(Cc3ccc(OC)cc3)c(C)c2C1=O | 114
17 | CCn1c(=O)c(C(=O)O)nc2ccc(F)cc21 | 162 to 164
18 | Cc1cc(C(F)(C(F)(F)F)C(F)(F)F)cc(C)c1NC(=O)c1cc(F)c(C#N)c(NC(=O)c2ccccc2)c1F | 245 to 248
19 | CNC1=NN(c2ccc(Cl)c(Cl)c2)CC1 | 68 to 70
20 | N#Cc1ccc[nH]c1=S | 243 to 246
21 | CC(=O)Nc1cc(O)c(C(=O)CCCCl)cc1Cl | 103 to 106

Row | SMILES | melting point [°C]
22 | C=Cc1ccc(NC(C)=O)nc1 | 120 to 121
23 | C#Cc1cccc(Nc2ncnc3ccc(S(=O)(=O)n4ccc(C=CC(=O)O)c4)cc23)c1 | 286 to 289
24 | CC(=O)c1ccc2c(c1)CC(NC(=O)C(F)(F)F)C2 (configuration not stated) | 112 to 114
25 | Cc1ccc(C)n1Nc1ccc(Cl)nn1 | 173 to 175
26 | CCCC(=O)Oc1ccc(C(O)CNC(C)(C)C)cc1OC(=O)CCC (configuration not stated) | 97 to 99
27 | COc1cc(Nc2c(C#N)cnc3cc(C#CCN(C)C)sc23)c(Cl)cc1Cl | 164 to 166
28 | O=C1NC(=O)C2(c3cccc([N+](=O)[O-])c3)CC12 (configuration not stated) | 173 to 174
29 | CN(c1cccc2cc(C(=O)NCC(C)(C#N)SCc3ccccc3)[nH]c12)S(=O)(=O)c1cccs1 (configuration not stated) | 181 to 182
30 | CC1c2cc(C(C)(C)C)cc(C(C)(C)C)c2OP(OCCNC(C)(C)C)Oc2c1cc(C(C)(C)C)cc2C(C)(C)C (configuration not stated) | 174 to 175
31 | O=S(=O)(Nc1ccc(Br)cc1)C(F)(F)F | 52 to 54
32 | Cc1nc(-c2ccc(Cl)cc2Cl)c(Br)n1C(F)F | 81 to 83
33 | CC(C(=O)O)c1ccc(-c2ccc(O)cc2)cc1 (configuration not stated) | 205 to 206
34 | CS(=O)(=O)c1ccc(-c2nn(Cc3ccc(F)cc3F)c(=O)cc2-c2ccc(Cl)cc2)cc1 | 174
35 | CNS(=O)(=O)C(C)C(=O)C=C(C)N (configuration not stated) | 140 to 143
36 | COc1ccc(C(=O)Nc2cc(NC(=O)c3ccc(OCCCCl)cc3)ccc2C)cc1OC | 186 to 187
37 | CC(=O)Nc1ccc(C(C)=O)cn1 | 146 to 147
38 | CSCC(=O)Nc1ccccc1 | 100
39 | CNc1c(F)cc2c(=O)c(C(=O)O)cn(-c3cc(N)c(F)cc3F)c2c1OC | 225 to 227
40 | CC(C)c1ccccc1N=C1NCCS1 | 76 to 77
41 | COc1ccc(NC(=O)C23CC4CC(CC(C4)C2)C3)cc1OC | 224 to 226
42 | CCCOc1ncc(C(C)=O)cc1-c1nc2c(CC)n(C3CN(C(C)=O)C3)nc2c(=O)[nH]1 | 229 to 230

Row | SMILES | melting point [°C]
43 | CCOC(=O)C1=C(C)Nc2nc(N(C)C)nc(N)c2C1c1ccccc1C(F)(F)F (configuration not stated) | 210
44 | CN1C(=O)N(C)C(O)C1O (configuration not stated) | 140
45 | O=CC(=Cc1ccccc1)C(C=O)=Cc1ccccc1 | 109 to 110
46 | c1cc(-c2cnco2)nc(-c2cnco2)c1 | 190 to 191
47 | COC(=O)C1=CCC(=C2CCC3=C(N=C(C(C)C)C(C(C)C)N3)C2=O)C=C1 (configuration not stated) | 100 to 102
48 | COc1cc(Nc2c(C#N)cnc3cc(C#Cc4ccncc4)sc23)c(Cl)cc1Cl | 221 to 223
49 | CNC(=O)ON=C1OCCSC1(C)C | 67 to 68
50 | O=C1Nc2ccc3cn[nH]c3c2C1=O | > 300
51 | COc1cc(/C=C/C(=O)c2ccc(C(=O)O)cc2)cc(-c2cccs2)c1OC | 231
52 | O=C(Nc1ccccc1)O[C@@H]1CN=C(c2ccoc2)O[C@H]1c1ccccc1 (racemic) | 130
53 | Cc1c(-c2ccccc2)n(-c2ccccc2Cl)c(-c2ccccc2)cc1=S | 271 to 275
54 | Nc1nc2ccc(CO)cc2o1 | 148 to 150
55 | O=c1[nH]ncc2[nH]c(-c3ccc(OC(F)F)c(OC4CC4)c3)c(Cc3ccc(F)cc3)c12 | 193 to 195
56 | O=C(O)c1ccc(Cl)nc1C(F)(F)F | 154 to 156
57 | CC(C)c1noc(-c2ncn3c2nc(N2CCOCC2)c2cc(F)ccc23)n1 | 262 to 264
58 | CC(=O)NC(NNc1ccccc1)C(=O)NCc1ccccc1 (configuration not stated) | 132 to 134
59 | O=C1NCc2c1cccc2[N+](=O)[O-] | 235 to 237
60 | NC(=O)COCc1nnc(S)s1 | 216 to 217
61 | CSC(=S)NN=Cc1c[nH]c(-c2ccccc2)n1 | 166 to 170
62 | COc1ccc2[nH]c(SCc3ncnc(N4CCCC4)c3C)nc2c1 | 104 to 106

Now from value to compound:

Row | melting point [°C] | SMILES
63 | 223 to 225 | COc1ccc(CN2C(=O)C(N)C(=O)N(CC34CC5CC(CC(C5)C3)C4)c3ccccc32)cc1 (configuration not stated)
64 | 43 to 45 | OCc1cccc2oc3c(c12)CCCC3
65 | 244 to 247 | Cn1c(=O)ccc2cnc(Nc3ccccc3)nc21
66 | 121 to 123 | CCOC(=O)CCc1cc(F)c(N2CCNCC2)nc1Nc1ccc(F)cc1F
67 | 109 to 111 | CCOc1ccc(NC(=O)NCCCOc2cccc(CN3CCCCC3)c2)cc1
68 | 87 to 88 | CC1(C(=O)O)c2ccccc2Oc2ccccc21
69 | 226 to 228 | Brc1ccc2nc(-c3ccc4ccccc4c3)cn2c1
70 | 99.9 to 102 | COc1nc2cc(Cl)ccc2nc1N1CCN(C)CC1
71 | 192 to 196 | CC(C)COc1cc(C(=O)O)cc(N)c1C(=O)c1ccccc1
72 | 205 to 208 | CCCN(CCC)C(=O)Cn1c(-c2ccc([N+](=O)[O-])cc2)nc2cccnc21
73 | 154 to 156 | O=C(CCc1nnc(Nc2ccccc2Cl)o1)NC1CCN(Cc2ccc(Cl)c(Cl)c2)CC1
74 | 55 | CCCCCCCC(=O)N(CCc1ccc(CCO)cc1)S(=O)(=O)c1ccc(Cl)cc1
75 | 148 | CN1C(=O)CN(C(=O)c2ccccc2)N(c2cc(Cl)c(C(C#N)c3ccc(Cl)cc3)c(Cl)c2)C1=O (configuration not stated)
76 | 69.5 to 71 | COc1ccccc1N1CCN(CCNc2ccccc2OC(F)(F)F)CC1
77 | 218 to 223 | CSc1nc(-c2ccccn2)n(-c2ccc(C)c(C)c2)c(=O)c1C#N
78 | 215 to 218 | N#CC(Cc1c[nH]cn1)(c1ccccc1)c1ccc(Cl)cc1Cl (configuration not stated)
79 | 138 to 140 | NCCCCn1cnc(-c2ccc(F)cc2)c1
80 | 48 to 50 | Cc1nc(N2CCCN(Cc3ccc(F)cc3)C2=O)sc1C(=O)NCc1cccnc1
81 | 225 to 226 | CC(=O)Oc1ccc(S(=O)(=O)Cl)cc1N=NC(C(C)=O)C(=O)Nc1ccccc1 (configuration not stated)
82 | 237 to 240 | O=C(O)c1cccc(C(=O)C=Cc2cccc(C=Cc3ccc4ccccc4n3)c2)c1O

Row | melting point [°C] | SMILES
83 | 178 | CS(=O)(=O)C(=C1CN(C(c2ccccc2)c2ccccc2)C1)c1cccc(C(F)(F)F)c1
84 | 179 to 181 | O=C(Nc1ccc2c(c1)CCC(CCl)=C2)c1ccc(-c2ccc(Cl)cc2)cc1
85 | 161 to 162 | CCOC(=O)c1c(CN(CC)CC)nc2sc3c(c2c1-c1ccc(OC)c(OC)c1)CCN(S(=O)(=O)c1ccccc1)C3
86 | 170 to 172 | CCCCCCc1nc2c(N)nc3ccccc3c2n1CCCCNC(=O)Nc1ccccc1
87 | 200 to 201 | C=C1CS(=O)C2C(NC(=O)COc3ccccc3)C(=O)N2C1C(=O)OCc1ccc([N+](=O)[O-])cc1 (configuration not stated)
88 | 248 to 252 | O=c1[nH]c2c(CCO)c3ccccc3n2c2ccccc12
89 | 152 to 157 | O=C1C(=Cc2ccncc2)C(=O)c2ccccc21
90 | 133 to 135 | COc1ccc(C(=O)CCCCCN2CCC(CNC(=O)c3cc(Cl)c(N)cc3OC)CC2)cc1
91 | 143 to 145 | Cc1ccc2c(n1)Oc1ccc(C(C)C(=O)OCCC(N)=O)cc1C2 (configuration not stated)
92 | 106 to 107 | CS(=O)(=O)NCCCCC(c1cc(F)ccc1F)S(=O)(=O)c1ccc(Cl)cc1 (configuration not stated)
93 | 73 to 74 | OC(CCN1CCN(c2ccccc2)CC1)COc1cccc(C(F)(F)F)c1 (configuration not stated)
94 | 252 to 256 | Cc1cc(N(C)c2ccccc2)c2nn(C)cc2n1
95 | 239 to 240 | O=Cc1c(O)cccc1OCc1ccc(C(=O)O)cc1
96 | 95 to 97 | CS(=O)CC(=O)c1cccn1Cc1ccccc1 (configuration not stated)
97 | 131 | O=C(CCCCCN1CCN(c2ccc3c(c2)CCC3)CC1)N1Cc2ccccc2C1
98 | 79 to 81 | CC(C)(C)S(=O)C1CC(=O)N1CC(=O)CCc1ccccc1 (configuration not stated)
99 | 193 to 194 | CCc1cnc2c(NC(=O)c3c(Cl)cccc3Cl)cccc2c1CCl
100 | 157 to 162 | O=[N+]([O-])C(=CC(O)C(=C1NCCN1Cc1ccc(Cl)nc1)[N+](=O)[O-])C1=NCCN1Cc1ccc(Cl)nc1 (configuration not stated)
101 | 104 | O=C1CCC2(c3ccc(-c4ccc(OC(F)(F)F)cc4)cc3)OCC(c3ccccc3)N12 (configuration not stated)
102 | 117 to 118 | Cn1nc(CNS(C)(=O)=O)nc1NCCCOc1cccc(CN2CCCCC2)c1
